In the NIST ThermoML archive (doi:10.1021/je800925v):

Experiment: xn = mol fraction of the nth substance listed
Details: Liquid

CCCCCC [hexane] + CCO
Details | mass density [kg/m3] | viscosity [mPa·s]
273.15 K, x2 = 0.101 | 688.8 | 0.3638
273.15 K, x2 = 0.198 | 694.5 | 0.4
273.15 K, x2 = 0.302 | 702 | 0.4511
273.15 K, x2 = 0.401 | 712.1 | 0.5478
273.15 K, x2 = 0.496 | 721.4 | 0.6415
273.15 K, x2 = 0.6 | 732.7 | 0.77
273.15 K, x2 = 0.701 | 744.1 | 0.8963
273.15 K, x2 = 0.793 | 760.4 | 1.096
273.15 K, x2 = 0.901 | 781.1 | 1.377
275.65 K, x2 = 0.101 | 686.5 | 0.3563
275.65 K, x2 = 0.198 | 692.3 | 0.3904
275.65 K, x2 = 0.302 | 699.7 | 0.4388
275.65 K, x2 = 0.401 | 709.8 | 0.5294
275.65 K, x2 = 0.496 | 719.2 | 0.6182
275.65 K, x2 = 0.6 | 730.5 | 0.7386
275.65 K, x2 = 0.701 | 741.9 | 0.8583
275.65 K, x2 = 0.793 | 758.3 | 1.047
275.65 K, x2 = 0.901 | 779 | 1.311
278.15 K, x2 = 0.101 | 684.3 | 0.3492
278.15 K, x2 = 0.198 | 690 | 0.3812
278.15 K, x2 = 0.302 | 697.5 | 0.4269
278.15 K, x2 = 0.401 | 707.6 | 0.5119
278.15 K, x2 = 0.496 | 716.9 | 0.5956
278.15 K, x2 = 0.6 | 728.3 | 0.709
278.15 K, x2 = 0.701 | 739.7 | 0.8224
278.15 K, x2 = 0.793 | 756.1 | 1
278.15 K, x2 = 0.901 | 776.8 | 1.25
280.65 K, x2 = 0.101 | 682 | 0.3422
280.65 K, x2 = 0.198 | 687.8 | 0.3722
280.65 K, x2 = 0.302 | 695.2 | 0.4154
280.65 K, x2 = 0.401 | 704.9 | 0.4927
280.65 K, x2 = 0.496 | 714.7 | 0.5741
280.65 K, x2 = 0.6 | 726.1 | 0.6809
280.65 K, x2 = 0.701 | 737.4 | 0.7884
280.65 K, x2 = 0.793 | 753.9 | 0.9561
280.65 K, x2 = 0.901 | 774.7 | 1.191
283.15 K, x2 = 0.101 | 679.8 | 0.3352
283.15 K, x2 = 0.198 | 685.5 | 0.3635
283.15 K, x2 = 0.302 | 692.9 | 0.4042
283.15 K, x2 = 0.401 | 702.7 | 0.4766
283.15 K, x2 = 0.496 | 712.4 | 0.5537
283.15 K, x2 = 0.6 | 723.8 | 0.6543
283.15 K, x2 = 0.701 | 735.2 | 0.7562
283.15 K, x2 = 0.793 | 751.7 | 0.9147
283.15 K, x2 = 0.901 | 772.5 | 1.136
285.65 K, x2 = 0.101 | 677.5 | 0.3283
285.65 K, x2 = 0.198 | 683.2 | 0.3549
285.65 K, x2 = 0.302 | 690.6 | 0.3934
285.65 K, x2 = 0.401 | 700.4 | 0.4614
285.65 K, x2 = 0.496 | 710.1 | 0.5343
285.65 K, x2 = 0.6 | 721.5 | 0.629
285.65 K, x2 = 0.701 | 733 | 0.7257
285.65 K, x2 = 0.793 | 749.5 | 0.8754
285.65 K, x2 = 0.901 | 770.4 | 1.085
288.15 K, x2 = 0.101 | 675.2 | 0.3215
288.15 K, x2 = 0.198 | 680.9 | 0.346
288.15 K, x2 = 0.302 | 688.3 | 0.383
288.15 K, x2 = 0.401 | 698.1 | 0.4239
288.15 K, x2 = 0.496 | 707.9 | 0.5159
288.15 K, x2 = 0.6 | 719.3 | 0.6052
288.15 K, x2 = 0.701 | 730.8 | 0.6967
288.15 K, x2 = 0.793 | 747.3 | 0.8384
288.15 K, x2 = 0.901 | 768.2 | 1.036
290.65 K, x2 = 0.101 | 672.8 | 0.3147
290.65 K, x2 = 0.198 | 678.6 | 0.3366
290.65 K, x2 = 0.302 | 686 | 0.3728
290.65 K, x2 = 0.401 | 695.8 | 0.433
290.65 K, x2 = 0.496 | 705.5 | 0.498
290.65 K, x2 = 0.6 | 717 | 0.5822
290.65 K, x2 = 0.701 | 728.5 | 0.6691
290.65 K, x2 = 0.793 | 745.1 | 0.8031
290.65 K, x2 = 0.901 | 766 | 0.9898
293.15 K, x2 = 0 | 659.8 | 0.2979
293.15 K, x2 = 0.101 | 670.5 | 0.308
293.15 K, x2 = 0.198 | 676.2 | 0.3264
293.15 K, x2 = 0.302 | 683.7 | 0.3597
293.15 K, x2 = 0.401 | 693.5 | 0.3995
293.15 K, x2 = 0.496 | 703.2 | 0.4493
293.15 K, x2 = 0.6 | 714.7 | 0.5606
293.15 K, x2 = 0.701 | 726.2 | 0.643
293.15 K, x2 = 0.793 | 742.8 | 0.7696
293.15 K, x2 = 0.901 | 763.9 | 0.9463
295.65 K, x2 = 0.101 | 668.2 | 0.3016
295.65 K, x2 = 0.198 | 673.9 | 0.3161
295.65 K, x2 = 0.302 | 681.4 | 0.3499
295.65 K, x2 = 0.401 | 691.1 | 0.3949
295.65 K, x2 = 0.496 | 700.9 | 0.4437
295.65 K, x2 = 0.6 | 712.4 | 0.5401
295.65 K, x2 = 0.701 | 724 | 0.6182
295.65 K, x2 = 0.793 | 740.6 | 0.7377
295.65 K, x2 = 0.901 | 761.7 | 0.9052
298.15 K, x2 = 0 | 655.3 | 0.2865
298.15 K, x2 = 0.101 | 665.9 | 0.2953
298.15 K, x2 = 0.198 | 671.5 | 0.3049
298.15 K, x2 = 0.302 | 679 | 0.3398
298.15 K, x2 = 0.401 | 688.8 | 0.3755
298.15 K, x2 = 0.496 | – | 0.4288
298.15 K, x2 = 0.6 | 710.1 | 0.5021
298.15 K, x2 = 0.701 | 721.7 | 0.5944
298.15 K, x2 = 0.793 | 738.3 | 0.7071
298.15 K, x2 = 0.901 | 759.5 | 0.8663
